This note sets out measurements from article PMC8213057, “Targeting ALK2: An Open Science Approach to Developing Therapeutics for the Treatment of Diffuse Intrinsic Pontine Glioma” (Journal of Medicinal Chemistry, 2020).

SMILES strings stand for the structures.

One assay has as its target HIPK1 (Homo sapiens, UniProt Q86Z02). In words: biochemical. To be noted: read-out: % enzyme activity, 1 μM; Run 1, Run 2.
The next assay concerns the target CDK4/cyclin D1 (Homo sapiens, UniProt P11802). In words: biochemical. The following applies: read-out: % enzyme activity, 1 μM; Run 1, Run 2.
The next assay concerns the target MARK1 (Homo sapiens, UniProt Q9P0L2). In words: biochemical. To be noted: read-out: % enzyme activity, 1 μM; Run 1, Run 2.
For the next assay, the target named is MRCKa/CDC42BPA (Homo sapiens, UniProt Q5VT25). In words: biochemical. To be noted: read-out: % enzyme activity, 1 μM; Run 1, Run 2.
Another assay has as its target T1, PLK4/SAK (Homo sapiens, UniProt O00444).
T1 sequence (O00444 1-970): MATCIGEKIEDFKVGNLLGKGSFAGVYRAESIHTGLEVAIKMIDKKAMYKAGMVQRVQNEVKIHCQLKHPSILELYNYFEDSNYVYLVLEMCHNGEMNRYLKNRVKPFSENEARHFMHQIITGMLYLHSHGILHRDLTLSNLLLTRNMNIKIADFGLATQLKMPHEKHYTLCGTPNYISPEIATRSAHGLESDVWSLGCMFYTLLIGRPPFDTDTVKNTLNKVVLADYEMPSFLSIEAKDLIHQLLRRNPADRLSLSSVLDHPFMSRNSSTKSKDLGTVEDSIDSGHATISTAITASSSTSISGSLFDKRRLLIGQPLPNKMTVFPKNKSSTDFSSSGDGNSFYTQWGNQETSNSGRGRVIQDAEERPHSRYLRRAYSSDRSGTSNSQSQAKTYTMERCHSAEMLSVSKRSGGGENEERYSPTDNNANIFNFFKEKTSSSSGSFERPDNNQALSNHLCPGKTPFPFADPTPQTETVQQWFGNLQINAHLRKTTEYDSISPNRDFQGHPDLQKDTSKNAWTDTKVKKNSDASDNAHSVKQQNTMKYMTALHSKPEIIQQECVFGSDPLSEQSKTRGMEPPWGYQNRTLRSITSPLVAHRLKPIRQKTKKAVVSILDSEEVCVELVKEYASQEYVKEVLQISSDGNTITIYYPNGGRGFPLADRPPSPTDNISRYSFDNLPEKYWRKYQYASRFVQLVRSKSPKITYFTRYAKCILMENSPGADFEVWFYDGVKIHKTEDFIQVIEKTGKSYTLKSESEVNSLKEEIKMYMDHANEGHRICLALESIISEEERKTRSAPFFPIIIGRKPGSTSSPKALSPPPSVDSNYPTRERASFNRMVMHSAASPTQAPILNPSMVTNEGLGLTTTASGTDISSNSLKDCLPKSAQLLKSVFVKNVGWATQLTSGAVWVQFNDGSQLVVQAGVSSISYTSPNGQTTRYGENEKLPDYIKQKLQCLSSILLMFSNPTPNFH
To be noted: 1 μM; Run 1, Run 2.

The next assay concerns the target RSK1 (Homo sapiens, UniProt Q15418). In words: biochemical. The following applies: read-out: % enzyme activity, 1 μM; Run 1, Run 2.
For a further assay, the target named is SRPK1 (Homo sapiens, UniProt Q96SB4). In words: biochemical. The following applies: read-out: % enzyme activity, 1 μM; Run 1, Run 2.
Another assay addresses CDK17/cyclin Y (PCTK2) (Homo sapiens, UniProt Q00537). Description: biochemical. The following applies: read-out: % enzyme activity, 1 μM; Run 1, Run 2.
A further assay deals with STK38L/NDR2 (Homo sapiens, UniProt Q9Y2H1). Description: biochemical. The following applies: read-out: % enzyme activity, 1 μM; Run 1, Run 2.
The target in another assay is T2, ULK2 (Homo sapiens, UniProt Q8IYT8).
T2 sequence (Q8IYT8 1-1036): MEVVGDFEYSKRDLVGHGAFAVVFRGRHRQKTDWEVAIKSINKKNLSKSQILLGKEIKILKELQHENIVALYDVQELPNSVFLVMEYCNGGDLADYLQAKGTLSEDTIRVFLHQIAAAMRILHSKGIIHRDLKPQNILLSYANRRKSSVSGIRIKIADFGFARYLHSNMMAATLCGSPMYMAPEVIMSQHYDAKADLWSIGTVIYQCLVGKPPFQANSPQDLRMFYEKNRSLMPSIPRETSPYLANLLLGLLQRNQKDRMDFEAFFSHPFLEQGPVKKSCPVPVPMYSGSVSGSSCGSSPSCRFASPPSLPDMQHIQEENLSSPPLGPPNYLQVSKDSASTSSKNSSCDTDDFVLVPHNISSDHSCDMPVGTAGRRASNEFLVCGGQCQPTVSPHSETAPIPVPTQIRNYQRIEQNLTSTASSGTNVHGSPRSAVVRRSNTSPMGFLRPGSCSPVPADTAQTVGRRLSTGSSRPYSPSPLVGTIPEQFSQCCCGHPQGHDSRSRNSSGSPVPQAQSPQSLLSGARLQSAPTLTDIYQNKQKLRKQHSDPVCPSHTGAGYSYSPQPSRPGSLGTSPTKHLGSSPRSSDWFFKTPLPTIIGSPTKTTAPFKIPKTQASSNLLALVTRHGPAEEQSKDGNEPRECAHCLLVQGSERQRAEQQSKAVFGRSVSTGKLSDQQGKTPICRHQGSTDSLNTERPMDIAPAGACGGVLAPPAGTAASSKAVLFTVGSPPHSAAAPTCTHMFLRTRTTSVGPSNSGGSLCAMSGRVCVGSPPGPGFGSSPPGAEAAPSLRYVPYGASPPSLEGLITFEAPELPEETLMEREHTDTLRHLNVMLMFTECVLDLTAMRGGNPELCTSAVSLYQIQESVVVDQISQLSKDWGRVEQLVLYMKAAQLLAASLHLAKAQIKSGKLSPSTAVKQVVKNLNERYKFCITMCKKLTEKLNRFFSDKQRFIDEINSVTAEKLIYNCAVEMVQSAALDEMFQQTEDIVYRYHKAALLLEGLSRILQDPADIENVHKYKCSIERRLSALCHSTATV
The following applies: 1 μM; Run 1, Run 2.

Another assay deals with CAMKK2 (Homo sapiens, UniProt Q96RR4). Description: biochemical. The following applies: read-out: % enzyme activity, 1 μM; Run 1, Run 2.
Chain of CAMKK2 (Q96RR4 whole entry): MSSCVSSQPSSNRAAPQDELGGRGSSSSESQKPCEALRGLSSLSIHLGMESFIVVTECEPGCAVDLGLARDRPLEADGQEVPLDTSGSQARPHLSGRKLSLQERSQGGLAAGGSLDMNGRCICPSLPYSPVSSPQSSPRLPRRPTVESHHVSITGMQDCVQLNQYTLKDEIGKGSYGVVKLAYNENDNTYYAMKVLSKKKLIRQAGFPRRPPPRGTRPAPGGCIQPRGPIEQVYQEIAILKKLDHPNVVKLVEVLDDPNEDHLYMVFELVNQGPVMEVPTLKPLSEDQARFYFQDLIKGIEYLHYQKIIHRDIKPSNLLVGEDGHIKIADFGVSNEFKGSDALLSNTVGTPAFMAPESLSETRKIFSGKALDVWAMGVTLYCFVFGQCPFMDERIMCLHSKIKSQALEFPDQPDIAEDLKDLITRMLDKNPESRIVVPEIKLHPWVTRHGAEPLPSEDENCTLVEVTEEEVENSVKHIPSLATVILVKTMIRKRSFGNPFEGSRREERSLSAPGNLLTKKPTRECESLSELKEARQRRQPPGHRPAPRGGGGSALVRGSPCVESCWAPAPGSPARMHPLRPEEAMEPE
A further assay concerns the target P38b/MAPK11 (Homo sapiens, UniProt Q15759). Description: biochemical. The following applies: read-out: % enzyme activity, 1 μM; Run 1, Run 2.
The target of the next assay is ROS/ROS1 (Homo sapiens, UniProt P08922). In words: biochemical. To be noted: read-out: % enzyme activity, 1 μM; Run 1, Run 2.
A further assay deals with ERBB4/HER4 (Homo sapiens, UniProt Q15303). In words: biochemical. To be noted: read-out: % enzyme activity, 1 μM; Run 1, Run 2.
Chain of ERBB4/HER4 (Q15303 26-1308): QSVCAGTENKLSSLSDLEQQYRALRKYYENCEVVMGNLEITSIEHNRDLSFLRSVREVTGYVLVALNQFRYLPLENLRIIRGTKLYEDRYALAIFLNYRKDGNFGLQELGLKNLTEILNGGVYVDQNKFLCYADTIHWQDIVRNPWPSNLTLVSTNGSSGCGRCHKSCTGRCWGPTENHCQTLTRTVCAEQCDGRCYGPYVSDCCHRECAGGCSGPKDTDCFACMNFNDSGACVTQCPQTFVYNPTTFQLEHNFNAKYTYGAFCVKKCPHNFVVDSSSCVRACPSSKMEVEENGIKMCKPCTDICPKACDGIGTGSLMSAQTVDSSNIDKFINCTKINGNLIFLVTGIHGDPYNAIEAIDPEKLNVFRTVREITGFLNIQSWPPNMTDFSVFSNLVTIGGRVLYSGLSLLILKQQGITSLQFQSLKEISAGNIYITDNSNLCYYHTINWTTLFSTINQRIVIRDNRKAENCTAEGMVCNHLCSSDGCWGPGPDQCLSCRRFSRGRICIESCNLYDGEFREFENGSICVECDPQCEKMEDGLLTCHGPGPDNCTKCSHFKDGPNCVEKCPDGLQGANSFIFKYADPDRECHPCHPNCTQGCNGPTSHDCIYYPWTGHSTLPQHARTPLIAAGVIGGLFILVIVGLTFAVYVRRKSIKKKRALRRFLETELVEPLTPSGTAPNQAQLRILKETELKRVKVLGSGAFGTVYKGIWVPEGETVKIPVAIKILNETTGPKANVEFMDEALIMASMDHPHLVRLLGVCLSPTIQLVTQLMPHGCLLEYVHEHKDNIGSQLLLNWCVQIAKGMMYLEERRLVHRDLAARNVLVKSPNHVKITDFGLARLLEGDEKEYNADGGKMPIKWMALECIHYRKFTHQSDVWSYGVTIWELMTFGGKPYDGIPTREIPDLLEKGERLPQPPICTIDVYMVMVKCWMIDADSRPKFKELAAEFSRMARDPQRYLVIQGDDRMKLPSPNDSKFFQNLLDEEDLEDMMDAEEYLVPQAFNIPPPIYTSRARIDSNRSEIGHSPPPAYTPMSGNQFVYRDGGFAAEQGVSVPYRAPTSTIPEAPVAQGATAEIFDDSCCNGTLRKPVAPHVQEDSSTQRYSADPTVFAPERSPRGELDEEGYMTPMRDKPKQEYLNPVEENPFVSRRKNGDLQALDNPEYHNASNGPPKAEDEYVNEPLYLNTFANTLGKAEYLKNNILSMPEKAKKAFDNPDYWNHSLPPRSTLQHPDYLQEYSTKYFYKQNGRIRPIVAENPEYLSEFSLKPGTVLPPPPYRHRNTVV
A further assay addresses STK25/YSK1 (Homo sapiens, UniProt O00506). Description: biochemical. The following applies: read-out: % enzyme activity, 1 μM; Run 1, Run 2.

Chain of RSK1 (Q15418 whole entry): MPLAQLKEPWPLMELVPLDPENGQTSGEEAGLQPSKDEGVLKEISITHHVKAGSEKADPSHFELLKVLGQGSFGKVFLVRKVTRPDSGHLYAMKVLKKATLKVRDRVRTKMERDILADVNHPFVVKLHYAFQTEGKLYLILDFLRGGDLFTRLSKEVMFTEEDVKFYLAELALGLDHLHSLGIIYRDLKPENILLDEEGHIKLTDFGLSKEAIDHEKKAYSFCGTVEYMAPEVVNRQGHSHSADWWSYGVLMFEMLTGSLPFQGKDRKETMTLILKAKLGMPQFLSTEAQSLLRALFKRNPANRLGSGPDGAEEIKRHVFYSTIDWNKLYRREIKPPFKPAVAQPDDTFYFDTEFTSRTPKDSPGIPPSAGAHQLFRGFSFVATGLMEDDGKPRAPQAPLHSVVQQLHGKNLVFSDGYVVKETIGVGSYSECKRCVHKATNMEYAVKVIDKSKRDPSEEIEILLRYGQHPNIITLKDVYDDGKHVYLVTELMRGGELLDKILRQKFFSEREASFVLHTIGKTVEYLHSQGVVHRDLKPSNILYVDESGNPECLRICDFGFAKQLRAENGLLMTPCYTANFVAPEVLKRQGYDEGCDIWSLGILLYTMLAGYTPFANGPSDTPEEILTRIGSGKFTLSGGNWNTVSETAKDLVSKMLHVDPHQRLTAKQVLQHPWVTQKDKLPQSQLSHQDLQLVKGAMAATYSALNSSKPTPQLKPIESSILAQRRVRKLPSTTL
Chain of STK25/YSK1 (O00506 whole entry): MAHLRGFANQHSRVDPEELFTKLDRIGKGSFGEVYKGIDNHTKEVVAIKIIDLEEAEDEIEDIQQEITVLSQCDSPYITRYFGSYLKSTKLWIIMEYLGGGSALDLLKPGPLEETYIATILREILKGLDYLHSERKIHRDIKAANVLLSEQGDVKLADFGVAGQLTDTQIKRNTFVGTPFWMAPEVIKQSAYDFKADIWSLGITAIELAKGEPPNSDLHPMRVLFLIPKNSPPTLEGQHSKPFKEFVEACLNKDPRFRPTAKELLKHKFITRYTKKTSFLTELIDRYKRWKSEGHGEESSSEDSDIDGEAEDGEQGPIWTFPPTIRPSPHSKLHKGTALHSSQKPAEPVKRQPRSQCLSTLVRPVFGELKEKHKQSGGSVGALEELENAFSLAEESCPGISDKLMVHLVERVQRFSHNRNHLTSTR
Chain of MARK1 (Q9P0L2 whole entry): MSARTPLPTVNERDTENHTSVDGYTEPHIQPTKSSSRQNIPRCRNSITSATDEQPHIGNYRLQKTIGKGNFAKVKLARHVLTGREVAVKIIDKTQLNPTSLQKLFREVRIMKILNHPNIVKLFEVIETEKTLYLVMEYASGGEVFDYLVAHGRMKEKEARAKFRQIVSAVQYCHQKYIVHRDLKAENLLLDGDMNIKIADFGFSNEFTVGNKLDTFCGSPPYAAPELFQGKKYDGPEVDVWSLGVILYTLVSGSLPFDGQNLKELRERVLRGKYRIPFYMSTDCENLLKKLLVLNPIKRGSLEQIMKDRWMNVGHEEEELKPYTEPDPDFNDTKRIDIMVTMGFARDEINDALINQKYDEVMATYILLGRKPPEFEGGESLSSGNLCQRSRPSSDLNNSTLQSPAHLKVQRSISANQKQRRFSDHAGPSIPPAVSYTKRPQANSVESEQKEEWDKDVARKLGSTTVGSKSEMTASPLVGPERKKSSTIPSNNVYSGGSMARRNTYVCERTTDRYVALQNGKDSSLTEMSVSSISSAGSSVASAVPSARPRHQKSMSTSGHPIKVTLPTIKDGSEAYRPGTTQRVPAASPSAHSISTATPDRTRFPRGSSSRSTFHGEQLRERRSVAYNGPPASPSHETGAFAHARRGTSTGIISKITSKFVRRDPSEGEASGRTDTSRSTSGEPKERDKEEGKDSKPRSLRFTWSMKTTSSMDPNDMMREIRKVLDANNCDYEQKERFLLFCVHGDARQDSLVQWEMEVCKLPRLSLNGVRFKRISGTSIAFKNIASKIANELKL
Chain of HIPK1 (Q86Z02 whole entry): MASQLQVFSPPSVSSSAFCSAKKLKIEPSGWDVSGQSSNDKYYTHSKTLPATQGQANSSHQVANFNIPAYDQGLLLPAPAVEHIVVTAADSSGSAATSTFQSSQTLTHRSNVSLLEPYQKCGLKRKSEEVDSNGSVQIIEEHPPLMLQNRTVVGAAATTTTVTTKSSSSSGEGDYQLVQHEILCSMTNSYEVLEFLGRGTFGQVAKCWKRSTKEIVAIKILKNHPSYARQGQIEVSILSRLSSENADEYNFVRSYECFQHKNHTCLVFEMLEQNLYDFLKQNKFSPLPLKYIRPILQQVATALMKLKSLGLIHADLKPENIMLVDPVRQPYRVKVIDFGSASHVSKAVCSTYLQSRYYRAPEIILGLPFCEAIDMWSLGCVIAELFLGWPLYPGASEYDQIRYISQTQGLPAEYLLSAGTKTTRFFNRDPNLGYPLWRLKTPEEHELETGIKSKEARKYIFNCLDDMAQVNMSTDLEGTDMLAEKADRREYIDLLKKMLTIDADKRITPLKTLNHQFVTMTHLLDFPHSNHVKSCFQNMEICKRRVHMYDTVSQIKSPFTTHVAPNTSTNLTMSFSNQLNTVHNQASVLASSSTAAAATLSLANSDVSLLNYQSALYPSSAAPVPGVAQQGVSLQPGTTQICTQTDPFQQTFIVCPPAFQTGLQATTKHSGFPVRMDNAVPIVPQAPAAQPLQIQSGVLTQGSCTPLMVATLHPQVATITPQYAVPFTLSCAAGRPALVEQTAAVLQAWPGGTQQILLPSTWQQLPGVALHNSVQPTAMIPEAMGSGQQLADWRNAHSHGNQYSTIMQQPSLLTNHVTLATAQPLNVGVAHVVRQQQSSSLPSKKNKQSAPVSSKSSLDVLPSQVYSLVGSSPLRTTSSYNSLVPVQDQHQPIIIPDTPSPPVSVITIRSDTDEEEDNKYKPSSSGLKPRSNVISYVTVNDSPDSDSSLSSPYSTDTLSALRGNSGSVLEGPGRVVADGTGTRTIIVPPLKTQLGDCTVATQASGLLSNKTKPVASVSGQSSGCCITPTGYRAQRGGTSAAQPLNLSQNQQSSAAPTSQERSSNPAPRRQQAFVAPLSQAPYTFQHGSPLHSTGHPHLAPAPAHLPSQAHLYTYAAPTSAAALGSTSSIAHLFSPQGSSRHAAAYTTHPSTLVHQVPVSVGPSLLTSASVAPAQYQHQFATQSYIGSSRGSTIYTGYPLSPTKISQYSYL

On to `COc1cc(-c2cncc(-c3ccc(N4C[C@@H](C)N(C)[C@@H](C)C4)cc3)c2C)cc(F)c1C(N)=O` [Compound 26c, 2-Fluoro-6-methoxy-4-(4-methyl-5-(4-((3R,5S)-3,4,5-trimethylpiperazin-1-yl)phenyl)pyridin-3-yl)benzamide], for which the remaining activity at 1 µM was 99.9% at HIPK1; 100% at CDK4/cyclin D1; 94.1% at MARK1; 105% on MRCKa/CDC42BPA; 102% at RSK1; 89.3% at SRPK1. Besides, the remaining activity at 1 µM on CDK17/cyclin Y (PCTK2) turned out to be 101%; at STK38L/NDR2 it was 104%; at CAMKK2, 76.4%; on P38b/MAPK11, 95.5%; on ROS/ROS1, 97.4%; on ERBB4/HER4 it was 94.9%. Besides, the remaining activity at 1 µM at STK25/YSK1 stood at 96.1%. In addition, the “% enzyme activity” value at PLK4/SAK stood at 98.79%; at ULK2, 84.46%.
With `COc1cc(-c2cncc(-c3ccc(N4CCN(C)CC4)cc3)c2C)cc(F)c1C(N)=O` [Compound 26a, 2-Fluoro-6-methoxy-4-(4-methyl-5-(4-(4-methylpiperazin-1-yl)phenyl)pyridin-3-yl)benzamide], the remaining activity at 1 µM on HIPK1 was 106%; on CDK4/cyclin D1, 99.4%; on MARK1 it was 88%; at MRCKa/CDC42BPA, 103%; at RSK1 it was 98.9%; on SRPK1, 112%. The remaining activity at 1 µM at CDK17/cyclin Y (PCTK2) was found to be 96.1%; at STK38L/NDR2, 99.4%; at CAMKK2, 71.7%; on P38b/MAPK11, 92.3%; at ROS/ROS1 it was 87.7%; on ERBB4/HER4 it was 99.5%. Moreover, on STK25/YSK1, the remaining activity at 1 µM is 95.7%. Further, the “% enzyme activity” value worked out at 93.32% at PLK4/SAK and 73.24% on ULK2.
